Counter-ions that a name gives are not always drawn. Active and inactive are the calls of the source.
Experiments:
[1] = target: T1, MAP/microtubule affinity-regulating kinase 4 (Homo sapiens, UniProt Q96L34)
T1 sequence (Q96L34 whole entry): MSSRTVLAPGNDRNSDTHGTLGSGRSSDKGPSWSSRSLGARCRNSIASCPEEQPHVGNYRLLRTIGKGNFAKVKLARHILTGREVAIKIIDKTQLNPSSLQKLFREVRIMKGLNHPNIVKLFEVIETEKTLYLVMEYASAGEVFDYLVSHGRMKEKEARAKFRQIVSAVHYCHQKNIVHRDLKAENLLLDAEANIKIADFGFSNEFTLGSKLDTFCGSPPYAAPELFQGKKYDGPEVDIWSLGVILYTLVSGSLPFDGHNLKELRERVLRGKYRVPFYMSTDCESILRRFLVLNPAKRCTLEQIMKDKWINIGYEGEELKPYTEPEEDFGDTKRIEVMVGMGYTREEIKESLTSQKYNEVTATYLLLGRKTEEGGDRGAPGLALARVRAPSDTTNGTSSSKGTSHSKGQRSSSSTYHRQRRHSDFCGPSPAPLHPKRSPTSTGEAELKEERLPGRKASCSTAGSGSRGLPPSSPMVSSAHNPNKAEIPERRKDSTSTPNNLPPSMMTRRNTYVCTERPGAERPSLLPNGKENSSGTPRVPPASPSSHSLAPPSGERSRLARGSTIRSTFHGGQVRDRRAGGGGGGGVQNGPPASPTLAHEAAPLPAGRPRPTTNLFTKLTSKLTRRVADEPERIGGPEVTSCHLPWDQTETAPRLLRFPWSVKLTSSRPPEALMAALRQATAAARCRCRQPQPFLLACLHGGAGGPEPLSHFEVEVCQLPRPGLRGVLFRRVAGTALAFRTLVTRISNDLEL

Myosin-10 = Myosin-10 (Homo sapiens, UniProt P35580)
Chain of Myosin-10 (P35580 whole entry): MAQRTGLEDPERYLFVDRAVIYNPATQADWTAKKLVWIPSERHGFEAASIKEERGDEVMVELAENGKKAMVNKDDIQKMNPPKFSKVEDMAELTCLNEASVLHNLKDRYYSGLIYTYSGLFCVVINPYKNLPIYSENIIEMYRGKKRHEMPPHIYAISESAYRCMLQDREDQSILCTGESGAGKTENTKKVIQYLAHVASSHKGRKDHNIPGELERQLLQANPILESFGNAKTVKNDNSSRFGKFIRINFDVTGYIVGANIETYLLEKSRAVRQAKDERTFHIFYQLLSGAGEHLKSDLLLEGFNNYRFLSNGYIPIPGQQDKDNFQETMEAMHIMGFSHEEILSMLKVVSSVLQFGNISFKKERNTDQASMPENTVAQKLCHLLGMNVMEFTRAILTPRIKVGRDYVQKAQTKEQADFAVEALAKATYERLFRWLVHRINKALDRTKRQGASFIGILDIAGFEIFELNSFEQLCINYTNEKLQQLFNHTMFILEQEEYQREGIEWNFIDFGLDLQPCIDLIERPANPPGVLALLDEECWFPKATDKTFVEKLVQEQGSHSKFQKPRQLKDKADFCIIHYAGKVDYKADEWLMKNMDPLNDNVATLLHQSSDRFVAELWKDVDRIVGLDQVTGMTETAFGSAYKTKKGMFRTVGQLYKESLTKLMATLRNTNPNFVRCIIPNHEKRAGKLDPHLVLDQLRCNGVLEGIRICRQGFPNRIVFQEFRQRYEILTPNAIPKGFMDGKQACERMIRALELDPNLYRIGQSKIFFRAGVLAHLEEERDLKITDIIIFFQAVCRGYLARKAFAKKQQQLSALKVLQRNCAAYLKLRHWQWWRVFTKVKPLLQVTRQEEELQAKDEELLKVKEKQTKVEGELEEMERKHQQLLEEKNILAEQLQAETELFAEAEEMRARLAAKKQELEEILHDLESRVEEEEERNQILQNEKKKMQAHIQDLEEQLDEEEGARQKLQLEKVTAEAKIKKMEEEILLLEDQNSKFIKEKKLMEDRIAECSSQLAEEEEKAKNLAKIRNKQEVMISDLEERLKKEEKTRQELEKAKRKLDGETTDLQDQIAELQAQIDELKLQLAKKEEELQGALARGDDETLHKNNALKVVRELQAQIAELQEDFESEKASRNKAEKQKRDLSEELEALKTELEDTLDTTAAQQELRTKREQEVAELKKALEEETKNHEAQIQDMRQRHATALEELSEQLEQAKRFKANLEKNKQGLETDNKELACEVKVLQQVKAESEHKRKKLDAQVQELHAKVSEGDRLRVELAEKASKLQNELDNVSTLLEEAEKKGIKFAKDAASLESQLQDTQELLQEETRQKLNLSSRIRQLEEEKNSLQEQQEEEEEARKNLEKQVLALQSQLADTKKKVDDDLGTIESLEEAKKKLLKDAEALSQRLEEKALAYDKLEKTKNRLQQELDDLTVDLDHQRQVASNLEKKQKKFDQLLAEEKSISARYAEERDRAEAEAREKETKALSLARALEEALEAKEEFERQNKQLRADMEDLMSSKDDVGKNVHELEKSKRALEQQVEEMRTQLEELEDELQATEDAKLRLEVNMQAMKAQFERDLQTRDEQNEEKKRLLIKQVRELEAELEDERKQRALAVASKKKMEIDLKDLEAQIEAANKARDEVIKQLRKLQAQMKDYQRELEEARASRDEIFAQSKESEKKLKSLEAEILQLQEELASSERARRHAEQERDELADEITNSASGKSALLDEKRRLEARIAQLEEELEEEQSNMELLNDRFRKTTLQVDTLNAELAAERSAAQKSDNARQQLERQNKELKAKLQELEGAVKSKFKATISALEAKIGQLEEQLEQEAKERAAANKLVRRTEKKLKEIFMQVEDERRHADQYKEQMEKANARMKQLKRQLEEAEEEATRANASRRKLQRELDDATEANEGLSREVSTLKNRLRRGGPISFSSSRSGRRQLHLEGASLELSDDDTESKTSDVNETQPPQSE

[2] = target: Phosphatidylethanolamine-binding protein 1 (Homo sapiens, UniProt P30086)
Chain of Phosphatidylethanolamine-binding protein 1 (P30086 whole entry): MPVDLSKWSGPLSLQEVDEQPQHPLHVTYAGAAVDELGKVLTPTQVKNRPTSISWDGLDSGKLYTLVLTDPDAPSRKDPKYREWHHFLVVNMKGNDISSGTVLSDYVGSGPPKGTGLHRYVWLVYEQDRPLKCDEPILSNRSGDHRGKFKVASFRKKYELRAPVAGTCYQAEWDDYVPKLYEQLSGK

GTP-binding protein 4 = GTP-binding protein 4 (Homo sapiens, UniProt Q9BZE4)
[3] = target: T2, Mitogen-activated protein kinase kinase kinase 6 (Homo sapiens, UniProt O95382)
T2 sequence (O95382 whole entry): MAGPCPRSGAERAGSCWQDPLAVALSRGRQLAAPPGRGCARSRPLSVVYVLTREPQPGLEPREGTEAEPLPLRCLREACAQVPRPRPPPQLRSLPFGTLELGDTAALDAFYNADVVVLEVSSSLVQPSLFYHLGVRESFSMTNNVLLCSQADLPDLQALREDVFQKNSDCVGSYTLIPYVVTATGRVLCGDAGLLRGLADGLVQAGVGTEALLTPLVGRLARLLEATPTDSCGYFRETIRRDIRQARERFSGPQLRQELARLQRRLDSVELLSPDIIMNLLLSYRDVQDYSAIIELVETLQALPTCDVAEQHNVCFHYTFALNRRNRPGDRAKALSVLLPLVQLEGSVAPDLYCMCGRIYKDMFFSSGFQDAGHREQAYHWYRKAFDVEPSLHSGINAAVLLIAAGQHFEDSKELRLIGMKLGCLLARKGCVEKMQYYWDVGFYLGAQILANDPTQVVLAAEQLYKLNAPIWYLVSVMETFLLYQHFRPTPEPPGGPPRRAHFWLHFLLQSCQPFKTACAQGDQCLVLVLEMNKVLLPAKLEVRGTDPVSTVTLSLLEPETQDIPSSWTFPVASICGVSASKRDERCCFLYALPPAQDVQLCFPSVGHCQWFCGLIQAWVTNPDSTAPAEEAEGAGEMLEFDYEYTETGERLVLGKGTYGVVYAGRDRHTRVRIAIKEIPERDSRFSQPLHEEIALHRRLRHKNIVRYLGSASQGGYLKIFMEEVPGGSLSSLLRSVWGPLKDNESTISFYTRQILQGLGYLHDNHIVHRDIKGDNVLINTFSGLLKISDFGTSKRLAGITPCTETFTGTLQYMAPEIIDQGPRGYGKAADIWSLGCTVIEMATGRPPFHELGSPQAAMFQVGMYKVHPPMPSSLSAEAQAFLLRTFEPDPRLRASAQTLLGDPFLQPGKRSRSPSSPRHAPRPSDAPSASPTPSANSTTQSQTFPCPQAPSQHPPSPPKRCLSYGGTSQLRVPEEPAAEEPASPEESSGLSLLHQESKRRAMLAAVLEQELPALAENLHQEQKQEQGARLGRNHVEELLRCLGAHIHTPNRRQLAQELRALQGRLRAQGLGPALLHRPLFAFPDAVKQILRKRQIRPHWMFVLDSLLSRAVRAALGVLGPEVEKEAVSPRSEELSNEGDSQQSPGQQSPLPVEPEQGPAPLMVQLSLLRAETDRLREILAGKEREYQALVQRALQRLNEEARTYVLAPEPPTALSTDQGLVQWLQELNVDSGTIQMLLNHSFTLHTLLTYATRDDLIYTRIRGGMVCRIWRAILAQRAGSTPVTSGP

[4] = target: T3, Very long-chain specific acyl-CoA dehydrogenase, mitochondrial (Homo sapiens, UniProt P49748)
T3 sequence (P49748 whole entry): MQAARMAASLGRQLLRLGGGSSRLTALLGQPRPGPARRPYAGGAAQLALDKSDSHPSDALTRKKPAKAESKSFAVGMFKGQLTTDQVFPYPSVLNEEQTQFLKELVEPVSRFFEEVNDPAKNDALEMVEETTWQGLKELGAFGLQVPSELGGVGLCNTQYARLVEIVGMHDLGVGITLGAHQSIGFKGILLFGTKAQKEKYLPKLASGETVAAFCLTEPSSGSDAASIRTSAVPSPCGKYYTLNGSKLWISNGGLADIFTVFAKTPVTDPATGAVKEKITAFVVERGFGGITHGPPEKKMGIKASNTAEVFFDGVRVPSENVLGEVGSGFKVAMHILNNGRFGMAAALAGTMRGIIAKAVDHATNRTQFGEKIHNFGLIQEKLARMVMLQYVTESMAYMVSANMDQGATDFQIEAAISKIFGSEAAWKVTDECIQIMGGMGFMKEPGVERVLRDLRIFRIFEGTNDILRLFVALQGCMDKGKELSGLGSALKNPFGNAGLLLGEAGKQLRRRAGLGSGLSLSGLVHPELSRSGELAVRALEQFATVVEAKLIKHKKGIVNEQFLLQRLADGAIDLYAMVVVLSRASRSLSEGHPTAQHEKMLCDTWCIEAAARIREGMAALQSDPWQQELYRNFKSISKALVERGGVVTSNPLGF
Also: in the data inactive means no Kd found up to 30 µM.

| Kd [1] | Kd (Myosin-10) | Kd [2] | Kd (GTP-binding protein 4) | Kd [3] | Kd [4] | SMILES |
| --- | --- | --- | --- | --- | --- | --- |
| > 30 µM (inactive) | > 30 µM (inactive) | > 30 µM (inactive) | > 30 µM (inactive) | > 30 µM (inactive) | > 30 µM (inactive) | C=CC(=O)N1CCC[C@H](n2c(=O)n(-c3ccc(Oc4ccccc4)cc3)c3c(N)ncnc32)C1 |
| > 30 µM (inactive) | > 30 µM (inactive) | > 30 µM (inactive) | > 30 µM (inactive) | > 30 µM (inactive) | > 30 µM (inactive) | Cc1nc2cc(-c3nn(C(C)C)c4ncnc(N)c34)ccc2o1 |
| > 30 µM (inactive) | > 30 µM (inactive) | > 30 µM (inactive) | > 30 µM (inactive) | > 30 µM (inactive) | > 30 µM (inactive) | COCc1c(-c2ccc(NC(=O)Nc3cc(C(F)(F)F)ccc3F)c(F)c2)c2c(N)ncnn2c1CN1CCOCC1 |
| > 30 µM (inactive) | > 30 µM (inactive) | > 30 µM (inactive) | > 30 µM (inactive) | > 30 µM (inactive) | > 30 µM (inactive) | Cc1csc(-c2nnc(Nc3ccc(Oc4ncccc4-c4ccnc(N)n4)cc3)c3ccccc23)c1 [AMG-900] |
| – | > 30 µM (inactive) | > 30 µM (inactive) | > 30 µM (inactive) | > 30 µM (inactive) | > 30 µM (inactive) | O=C(Nc1c[nH]nc1-c1nc2cc(CN3CCOCC3)ccc2[nH]1)NC1CC1 [AT-9283] |
| > 30 µM (inactive) | > 30 µM (inactive) | – | > 30 µM (inactive) | > 30 µM (inactive) | > 30 µM (inactive) | Cc1cc(C(=O)NOCCO)c(Nc2ccc(I)cc2F)n(C)c1=O [AZD-8330] |
| > 30 µM (inactive) | > 30 µM (inactive) | > 30 µM (inactive) | > 30 µM (inactive) | > 30 µM (inactive) | > 30 µM (inactive) | COc1cc2ncnc(Oc3cccc(NC(=O)Nc4cc(C(C)(C)C(F)(F)F)on4)c3)c2cc1OC [CEP-32496] |
| > 30 µM (inactive) | > 30 µM (inactive) | > 30 µM (inactive) | > 30 µM (inactive) | > 30 µM (inactive) | > 30 µM (inactive) | COc1c(OCCCN2CCOCC2)ccc2c1N=C(NC(=O)c1cnc(N)nc1)N1CCN=C21 [COPANLISIB] |
| > 30 µM (inactive) | > 30 µM (inactive) | – | > 30 µM (inactive) | 0.473 µM (active) | > 30 µM (inactive) | CCS(=O)(=O)N1CCN(c2ccc(Nc3ncc(C(N)=O)c(NC4CC4)n3)cc2)CC1 [Cerdulatinib Hydrochloride] |
| > 30 µM (inactive) | > 30 µM (inactive) | – | > 30 µM (inactive) | > 30 µM (inactive) | > 30 µM (inactive) | CCn1cc(-c2ccnc3[nH]c(-c4cccc(CN(C)C)c4)cc23)c(-c2ccc(NC(=O)N(C)C)cc2)n1 [GSK-1070916] |
| > 30 µM (inactive) | > 30 µM (inactive) | – | > 30 µM (inactive) | > 30 µM (inactive) | > 30 µM (inactive) | COc1ccc(S(=O)(=O)N(C(C)=O)c2ccccc2/C=C/c2cc[n+]([O-])cc2)cc1 [HMN-214] |
| – | > 30 µM (inactive) | > 30 µM (inactive) | > 30 µM (inactive) | > 30 µM (inactive) | > 30 µM (inactive) | CN(C[C@@H]1COCCO1)S(=O)(=O)Nc1ccc2ccc3ncc(-c4cnn(C)c4)cc3c(=O)c2c1 [MK-2461] |
| 0.009 µM (active) | > 30 µM (inactive) | – | – | 1.06 µM (active) | > 30 µM (inactive) | CC(=O)NCC(=O)N1[C@@H]2CC[C@H]1c1ccc(Nc3ncc(C(F)(F)F)c(NC4CCC4)n3)cc12 [PF-03814735] |
| 1.03 µM (active) | > 30 µM (inactive) | > 30 µM (inactive) | – | > 30 µM (inactive) | > 30 µM (inactive) | CCS(=O)(=O)c1cccc(-c2cc(C(=O)NC3CCN(C)CC3)c(C)c3[nH]c4ncc(C)cc4c23)c1 [TAK-901] |
| – | > 30 µM (inactive) | > 30 µM (inactive) | > 30 µM (inactive) | > 30 µM (inactive) | > 30 µM (inactive) | Cn1ncc(Cl)c1-c1cc(C(=O)N[C@H](CN)Cc2ccc(F)c(F)c2)oc1Cl [UPROSERTIB] |
| – | > 30 µM (inactive) | > 30 µM (inactive) | > 30 µM (inactive) | > 30 µM (inactive) | > 30 µM (inactive) | CN1C/C=C/CCOc2cccc(c2)-c2ccnc(n2)Nc2cccc(c2)C1 [ZOTIRACICLIB] |

| SMILES | Kd [1] | Kd (Myosin-10) | Kd [2] | Kd (GTP-binding protein 4) | Kd [3] | Kd [4] |
| --- | --- | --- | --- | --- | --- | --- |
| COc1cc([C@@H]2c3cc4c(cc3[C@H](O)[C@H]3COC(=O)[C@@H]23)OCO4)cc(OC)c1OC [AXL-1717] | – | > 30 µM (inactive) | > 30 µM (inactive) | > 30 µM (inactive) | > 30 µM (inactive) | > 30 µM (inactive) |
| NC(=O)Nc1cc(-c2cccc(F)c2)sc1C(=O)N[C@H]1CCCNC1 [AZD-7762] | 0.475 µM (active) | > 30 µM (inactive) | > 30 µM (inactive) | > 30 µM (inactive) | > 30 µM (inactive) | > 30 µM (inactive) |
| O=C(Nc1cc(C(F)(F)F)cc(C(F)(F)F)c1)c1cc(Cl)ccc1O [IMD-0354] | – | > 30 µM (inactive) | > 30 µM (inactive) | > 30 µM (inactive) | > 30 µM (inactive) | > 30 µM (inactive) |
| CCCCCCCCCCCCCCCCCCOP(=O)([O-])OC1CC[N+](C)(C)CC1 [PERIFOSINE] | – | > 30 µM (inactive) | > 30 µM (inactive) | > 30 µM (inactive) | > 30 µM (inactive) | > 30 µM (inactive) |
| CNC(=O)c1cc(Oc2ccc(NC(=O)Nc3cc(C(C)(C)C)nn3-c3ccc4ncccc4c3)c(F)c2)ccn1 [REBASTINIB] | > 30 µM (inactive) | > 30 µM (inactive) | – | > 30 µM (inactive) | > 30 µM (inactive) | > 30 µM (inactive) |
| CN1CCN(CCOc2cc(OC3CCOCC3)c3c(Nc4c(Cl)ccc5c4OCO5)ncnc3c2)CC1 [SARACATINIB] | > 30 µM (inactive) | > 30 µM (inactive) | – | – | > 30 µM (inactive) | > 30 µM (inactive) |

Reference: ChEMBL document CHEMBL3991601, “The target landscape of clinical kinase drugs” (Science, 2017)
